Assay results reported in patent publication US10221129B2, “Inhibitors of human immunodeficiency virus replication” (ViiV HEALTHCARE UK (NO.5) LIMITED, priority 2015, dated 2019).
pEC50: −log10 of the molar value.

Assays:
[1] = Compound cytotoxicity, XTT-based colorimetric assay; format: cell-based; conditions: human, uninfected MT2 cells, day 4, XTT
In short: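 Run under the antiviral-assay protocol but without virus. Viability was read on day 4 and CC50 values were derived from the readout.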

[2] = test system: recombinant NL4-3 virus (nef section replaced with Renilla luciferase gene) in MT-2 cells; assay: HIV cell culture assay (antiviral activity, luciferase readout); format: cell-based; conditions: Renilla, NL43, MT-2 cells infected for 4-5 days with recombinant NL4-3 Renilla luciferase virus
In short: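 Serial compound dilutions tested in MT-2 cells infected for 4-5 days with 293T-derived NL4-3 virus carrying Renilla luciferase in place of part of nef. Antiviral activity quantified as luciferase activity, read with a live-cell substrate.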

| Compound | CC50 at 4 days [1] | pEC50 [2] |
| --- | --- | --- |
| COc1ccc(N(C)C(=O)[C@H](Cc2ccccc2)NC(=O)NS(=O)(=O)N(C)c2ccccc2Cl)cc1 [JB-6] | > 100000 nM | 6.18 |
| CN(C(=O)[C@H](Cc1cc(F)cc(F)c1)NC(=O)NS(=O)(=O)N(C)c1cccnc1)c1ccc2scnc2c1 [CA-120] | > 100000 nM | 6.57 |
| CN(C(=O)[C@H](Cc1cc(F)cc(F)c1)NC(=O)NS(=O)(=O)N1CCc2cccnc21)c1ccc(=O)n(C)c1 [BB-1] | > 100000 nM | 4.96 |
| COc1ccc(N(C)C(=O)[C@H](Cc2ccccc2)NC(=O)NS(=O)(=O)Nc2cccnc2)cc1 [JB-21] | > 100000 nM | 5.75 |
| CN(C(=O)[C@H](Cc1cc(F)cc(F)c1)NC(=O)NS(=O)(=O)Nc1ccc(C(C)(C)C)cc1)c1ccc2scnc2c1 [ZY-11] | 66900 nM | 7.10 |
| CN(C(=O)[C@H](Cc1cc(F)cc(F)c1)NC(=O)NS(=O)(=O)N1CCc2cccnc21)c1ccc(OC(F)F)cc1 [BB-35] | 97200 nM | 8.00 |
| CN(C(=O)[C@H](Cc1cc(F)cc(F)c1)NC(=O)NS(=O)(=O)N1CCC(c2ccccc2)CC1)c1ccc2scnc2c1 [CA-156] | 99200 nM | 5.08 |
| COc1ccc(N(C)C(=O)[C@H](Cc2ccccc2)NC(=O)NS(=O)(=O)N2CCN(C)CC2c2ccccc2)cc1 (mixture of isomers) [JB-42] | > 100000 nM | 6.35 |
| CN(C(=O)[C@H](Cc1cc(F)cc(F)c1)NC(=O)NS(=O)(=O)N1CCc2cccnc21)c1ccc(N2CCOCC2)cc1 [BB-3] | 68100 nM | 6.47 |
| CN(C(=O)[C@H](Cc1cc(F)cc(F)c1)NC(=O)NS(=O)(=O)N(C)CCO)c1ccc2scnc2c1 [CA-125] | > 100000 nM | 6.80 |
| COc1ccc(N(C)C(=O)[C@H](Cc2ccccc2)NC(=O)NS(=O)(=O)NC(C)c2csc(C)n2)cc1 (stereo partly drawn) [JB-64] | > 100000 nM | 6.17 |
| COc1ccc(N(C)C(=O)[C@H](Cc2ccccc2)NC(=O)NS(=O)(=O)Nc2ccc(F)c(F)c2)cc1 [JB-51] | > 100000 nM | 6.96 |
| COc1ccc(N(C)C(=O)[C@H](Cc2ccccc2)NC(=O)NS(=O)(=O)NCC(=O)N2CCOCC2)cc1 [CA-59] | > 100000 nM | 5.21 |
| COc1ccc(N(C)C(=O)[C@H](Cc2ccccc2)NC(=O)NS(=O)(=O)N(C)CC(=O)N(C)C)cc1 [JB-30] | > 100000 nM | 5.71 |
| COc1ccc(N(C)C(=O)[C@H](Cc2ccccc2)NC(=O)NS(=O)(=O)Nc2ccccc2OC(F)(F)F)cc1 [CA-26] | > 100000 nM | 6.57 |
| Cc1ccc(N(C)C(=O)[C@H](Cc2cc(F)cc(F)c2)NC(=O)NS(=O)(=O)N2CCc3cccnc32)nc1 [GW-4] | > 100000 nM | 6.66 |
| CN(C(=O)[C@H](Cc1cc(F)cc(F)c1)NC(=O)N1CCN(C)S1(=O)=O)c1ccc2scnc2c1 [VN-28] | > 100000 nM | 6.60 |
| COc1ccc(N(C)C(=O)[C@H](Cc2ccccc2)NC(=O)NS(=O)(=O)Nc2ccc(S(=O)(=O)N3CCOCC3)cc2)cc1 [CA-44] | > 100000 nM | 6.21 |
| CC(C)CNS(=O)(=O)NC(=O)N[C@@H](Cc1cc(F)cc(F)c1)C(=O)N(C)c1ccc2scnc2c1 [CA-144] | > 100000 nM | 7.40 |

| Compound | CC50 at 4 days [1] | pEC50 [2] |
| --- | --- | --- |
| COc1ccc(N(C)C(=O)[C@H](Cc2ccccc2)NC(=O)NS(=O)(=O)Nc2ccc(Cl)cc2Cl)cc1 [CA-50] | > 100000 nM | 6.96 |
| COc1ccc(N(C)C(=O)[C@H](Cc2ccccc2)NC(=O)NS(=O)(=O)Nc2ccc(NC(C)=O)cc2)cc1 [CA-17] | > 100000 nM | 5.71 |
| COc1ccc(N(C)C(=O)[C@H](Cc2ccccc2)NC(=O)NS(=O)(=O)N(C)Cc2n[nH]c(=O)[nH]2)cc1 [JB-69] | > 100000 nM | 5.43 |
| COc1ccc(N(C)C(=O)[C@H](Cc2ccccc2)NC(=O)NS(=O)(=O)Nc2cccc3ccccc23)cc1 [CA-4] | 89400 nM | 6.39 |
| [2H]c1nc2cc(N(C)C(=O)[C@H](Cc3cc(F)cc(F)c3)NC(=O)NS(=O)(=O)N3CCc4cccnc43)ccc2s1 [GW-23] | > 10000 nM | 7.70 |
| COc1ccc(N(C)C(=O)[C@H](Cc2ccccc2)NC(=O)NS(=O)(=O)Nc2ccc(NC(=O)N(C)C)cc2)cc1 [JB-52] | > 100000 nM | 5.23 |
| CCNS(=O)(=O)NC(=O)N[C@@H](Cc1cc(F)cc(F)c1)C(=O)N(C)c1ccc2scnc2c1 [CA-124] | > 100000 nM | 6.96 |
| CCOc1ccc(NS(=O)(=O)NC(=O)N[C@@H](Cc2ccccc2)C(=O)N(C)c2ccc(OC)cc2)cc1 [JB-81] | > 100000 nM | 6.59 |
| COc1ccc(N(C)C(=O)[C@H](Cc2ccccc2)NC(=O)NS(=O)(=O)Nc2ccc3ccccc3c2)cc1 [CA-5] | > 33300 nM | 6.74 |
| Cc1cc(N(C)C(=O)[C@H](Cc2cc(F)cc(F)c2)NC(=O)NS(=O)(=O)N2CCc3cccnc32)cnc1C [GW-20] | > 100000 nM | 6.64 |
| CN(C(=O)[C@H](Cc1cc(F)cc(F)c1)NC(=O)NS(=O)(=O)NC1CCC1)c1ccc2scnc2c1 [CA-132] | > 100000 nM | 7.30 |
| CCN(c1cccnc1)S(=O)(=O)NC(=O)N[C@@H](Cc1cc(F)cc(F)c1)C(=O)N(C)c1ccc2scnc2c1 [CA-121] | 7300 nM | 6.00 |
| COc1ccc(N(C)C(=O)[C@H](Cc2ccccc2)NC(=O)NS(=O)(=O)NCc2cccc(F)c2)cc1 [JB-57] | > 100000 nM | 5.19 |
| COc1ccc(N(C)C(=O)[C@H](Cc2ccccc2)NC(=O)NS(=O)(=O)Nc2cccc(C)c2)cc1 [JB-24] | > 100000 nM | 7.00 |
| CN(C(=O)[C@H](Cc1cc(F)cc(F)c1)NC(=O)NS(=O)(=O)N(C)Cc1ccccc1)c1ccc2scnc2c1 [CA-139] | > 100000 nM | 6.66 |
| COc1ccc(N(C)C(=O)[C@H](Cc2ccccc2)NC(=O)NS(=O)(=O)Nc2ccc(OC(C)C)cc2)cc1 [CA-40] | > 100000 nM | 6.66 |
| CC(C)Oc1ccc(N(C)C(=O)[C@H](Cc2cc(F)cc(F)c2)NC(=O)NS(=O)(=O)N2CCc3cccnc32)cn1 [BB-12] | 94900 nM | 7.70 |
| CN(C(=O)[C@H](Cc1cc(F)cc(F)c1)NC(=O)NS(=O)(=O)N1CCc2cccnc21)c1ccc(Cl)cc1 [ZY-25] | 97100 nM | 7.52 |
| CN(C(=O)[C@H](Cc1cc(F)cc(F)c1)NC(=O)NS(=O)(=O)N1CC[C@H](O)C1)c1ccc2scnc2c1 [VN-26] | 20000 nM | 6.96 |

| Compound | CC50 at 4 days [1] | pEC50 [2] |
| --- | --- | --- |
| COc1ccc(N(C)C(=O)[C@H](Cc2ccccc2)NC(=O)NS(=O)(=O)N(C)c2ccc(Cl)cc2)cc1 [JB-35] | > 100000 nM | 7.10 |
| COc1ccc(N(C)C(=O)[C@H](Cc2ccccc2)NC(=O)NS(=O)(=O)Nc2ccc(C(C)=O)cc2)cc1 [CA-19] | > 100000 nM | 6.92 |
| CN(C(=O)[C@H](Cc1cc(F)cc(F)c1)NC(=O)NS(=O)(=O)n1ccc2cccnc21)c1ccc2scnc2c1 [VN-8] | > 100000 nM | 7.30 |
| Cc1cc(N(C)C(=O)[C@H](Cc2ccccc2)NC(=O)NS(=O)(=O)N2CCc3cccnc32)ccc1Cl [BB-6] | > 33300 nM | 6.47 |
| COc1ccc(N(C)C(=O)[C@H](Cc2ccccc2)NC(=O)NS(=O)(=O)Nc2nccc3ccccc23)cc1 [JB-32] | > 100000 nM | 5.84 |
| COc1ccc(N(C)C(=O)[C@H](Cc2ccccc2)NC(=O)NS(=O)(=O)Nc2ccc(F)cc2)cc1 [JB-50] | > 100000 nM | 7.00 |
| COc1ccc(N(C)C(=O)[C@H](Cc2ccccc2)NC(=O)NS(=O)(=O)NCCc2ccccc2)cc1 [JB-33] | > 100000 nM | 6.17 |
| CN(C(=O)[C@H](Cc1cc(F)cc(F)c1)NC(=O)NS(=O)(=O)N1CCC(Cc2ccccc2)CC1)c1ccc2scnc2c1 [CA-133] | 86400 nM | 6.14 |
| COc1ccc(N(C)C(=O)[C@H](Cc2ccccc2)NC(=O)NS(=O)(=O)Nc2cccc(OC(F)(F)F)c2)cc1 [CA-35] | 30300 nM | 6.42 |
| CCc1ccc(N(C)C(=O)[C@H](Cc2cc(F)cc(F)c2)NC(=O)NS(=O)(=O)N(C)C)cn1 [GW-17] | > 100000 nM | 7.00 |
| CN(C(=O)[C@H](Cc1cc(F)cc(F)c1)NC(=O)NS(=O)(=O)N1CCCCC1)c1ccc2scnc2c1 [VN-24] | > 100000 nM | 7.05 |
| COc1ccc(N(C)C(=O)[C@H](Cc2ccccc2)NC(=O)NS(=O)(=O)n2ccc3cccnc32)cc1 [JB-77] | > 100000 nM | 6.35 |
| COc1ccc(N(C)C(=O)[C@H](Cc2cc(F)cc(F)c2)NC(=O)NS(=O)(=O)N2CCCCC2)cc1F [AW-4] | > 100000 nM | 6.32 |
| CN(C(=O)[C@H](Cc1cc(F)cc(F)c1)NC(=O)NS(=O)(=O)N1CCc2ccccc21)c1ccc2scnc2c1 [ZY-8] | 88000 nM | 7.70 |
| COc1ccc(N(C)C(=O)[C@H](Cc2ccccc2)NC(=O)NS(=O)(=O)N2CCCCC2c2ccccc2)cc1 (stereo partly drawn) [JB-53] | 85500 nM | 5.96 |
| COc1ccc(N(C)C(=O)[C@H](Cc2ccccc2)NC(=O)NS(=O)(=O)N(C)C(c2ccccc2)c2ccccc2)cc1 [JB-40] | 66500 nM | 5.54 |
| COC1CN(S(=O)(=O)NC(=O)N[C@@H](Cc2cc(F)cc(F)c2)C(=O)N(C)c2ccc3scnc3c2)C1 [CA-128] | > 100000 nM | 7.00 |
| CN(C(=O)[C@H](Cc1cc(F)cc(F)c1)NC(=O)NS(=O)(=O)N(C)c1ccccc1F)c1ccc2scnc2c1 [CA-117] | > 100000 nM | 6.92 |
| COc1ccc(N(C)C(=O)[C@H](Cc2ccccc2)NC(=O)NS(=O)(=O)NCc2ccccc2)cc1 [JB-56] | > 100000 nM | 5.73 |
